Where two headings read alike, the source gives them in different places.
Assays:
Format in all cases: cell-based
GLP-1R [1] = molecular target: T1, GLP-1R (Homo sapiens, UniProt P43220); assay: HitHunter cAMP assay (GLP-1R); settings: cAMP; for Emax: read-out: (Emax) GLP-1R
Outline: (§1)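 Cells were resuspended in HBSS plus HEPES, IBMX (625 μM) and BSA, then dispensed with antibody at 10,000 per well. Agonists followed as 22-point twofold series, 30 min at room temperature. Antibody reagent and detection steps ran 1 h and overnight in the dark before luminescence.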

GIP-R = molecular target: T2, GIP-R (Homo sapiens, UniProt P48546); assay: HitHunter cAMP assay (GIP-R); settings: cAMP; for Emax: read-out: (Emax) GIP-R
T2 sequence (P48546 22-466): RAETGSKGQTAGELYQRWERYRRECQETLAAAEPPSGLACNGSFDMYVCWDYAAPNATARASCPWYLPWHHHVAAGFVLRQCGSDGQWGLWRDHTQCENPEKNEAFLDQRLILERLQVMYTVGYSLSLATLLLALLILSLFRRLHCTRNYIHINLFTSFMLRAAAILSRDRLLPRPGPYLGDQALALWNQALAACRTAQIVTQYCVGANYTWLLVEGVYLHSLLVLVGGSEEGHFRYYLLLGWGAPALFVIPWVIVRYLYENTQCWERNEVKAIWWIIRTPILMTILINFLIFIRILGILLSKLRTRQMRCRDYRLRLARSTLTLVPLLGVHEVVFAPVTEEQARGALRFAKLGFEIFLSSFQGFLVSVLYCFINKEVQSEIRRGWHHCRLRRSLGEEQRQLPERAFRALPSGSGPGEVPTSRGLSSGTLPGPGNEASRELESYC
Outline: as §1

GLP-1R [2] = molecular target: T1, GLP-1R; assay: PathHunter β-arrestin assay
Outline: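 Agonist concentration–response (22 points, 2-fold steps, duplicates) was run on cells plated the previous day in BSA-supplemented (0.2%) medium. Stimulation lasted 90 min at 37 °C, followed by a 3 h dark incubation with detection reagent at room temperature and a luminescence read.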

[3] = Table 3, read-out: EC50 GLP-1R/nM
[4] = Table 3A, read-out: EC50 GLP-1R/nM
[5] = Table 3, read-out: EC50 GIP-R/nM
[6] = Table 3A, read-out: EC50 GIP-R/nM
[7] = PathHunter β-arrestin assay, read-out: β-arrestin activity EC50

T1 sequence (P43220 24-463): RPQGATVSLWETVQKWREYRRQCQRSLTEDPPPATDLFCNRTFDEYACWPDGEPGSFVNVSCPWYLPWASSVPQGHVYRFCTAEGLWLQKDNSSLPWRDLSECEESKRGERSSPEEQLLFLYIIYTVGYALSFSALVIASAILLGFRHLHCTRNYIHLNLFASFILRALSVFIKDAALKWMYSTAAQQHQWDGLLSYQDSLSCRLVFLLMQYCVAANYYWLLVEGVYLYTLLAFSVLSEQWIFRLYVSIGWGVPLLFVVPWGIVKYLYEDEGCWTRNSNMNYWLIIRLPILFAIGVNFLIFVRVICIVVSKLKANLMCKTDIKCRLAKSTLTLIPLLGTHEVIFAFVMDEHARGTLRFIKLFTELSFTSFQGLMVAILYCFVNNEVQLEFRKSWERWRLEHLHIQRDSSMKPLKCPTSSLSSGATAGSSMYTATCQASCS

CCCCCCCCCCCCCCCC(=O)N[C@@H](CCC(=O)NCCCC[C@H](NC(=O)[C@H](CO)NC(=O)[C@@H]1CCCN1C(=O)[C@@H]1CCCN1C(=O)[C@@H]1CCCN1C(=O)[C@H](C)NC(=O)CNC(=O)[C@H](CO)NC(=O)[C@H](CO)NC(=O)[C@@H]1CCCN1C(=O)CNC(=O)CNC(=O)[C@H](C)NC(=O)[C@H](CC(C)C)NC(=O)[C@H](CC(C)C)NC(=O)[C@H](Cc1c[nH]c2ccccc12)NC(=O)[C@H](CC(N)=O)NC(=O)[C@@H](NC(=O)[C@H](Cc1ccccc1)NC(=O)[C@H](CCC(=O)O)NC(=O)C(C)(C)NC(=O)[C@H](C)NC(=O)[C@H](C)NC(=O)[C@H](CCC(N)=O)NC(=O)[C@H](CCCCN)NC(=O)[C@H](CC(=O)O)NC(=O)[C@H](CC(C)C)NC(=O)[C@H](Cc1ccc(O)cc1)NC(=O)[C@@H](NC(=O)[C@H](CO)NC(=O)[C@H](Cc1ccc(O)cc1)NC(=O)[C@H](CC(=O)O)NC(=O)[C@H](CO)NC(=O)[C@@H](NC(=O)[C@H](Cc1ccccc1)NC(=O)[C@@H](NC(=O)CNC(=O)[C@H](CCC(=O)O)NC(=O)CSCC(=O)NCCN1CCC[C@@H](O)C1=O)[C@@H](C)O)[C@@H](C)O)[C@@H](C)CC)C(C)C)C(N)=O)C(=O)O [Compound 7]
EC50 (GLP-1R [1]; EC50 GLP-1R/nM, Table 3): < 0.1 nM | EC50 (GLP-1R [1]; EC50 GLP-1R/nM, Table 3A): < 0.1 nM | Emax (GLP-1R [1]; Table 3): 94% | Emax (GLP-1R [1]; Table 3A): 94% | EC50 (GIP-R; EC50 GIP-R/nM, Table 3): 1 to 10 nM | EC50 (GIP-R; EC50 GIP-R/nM, Table 3A): 10 to 100 nM | Emax (GIP-R; Table 3): 29% | Emax (GIP-R; Table 3A): 29% | EC50 (GLP-1R [2]): > 1000 nM

CC[C@H](C)[C@H](NC(=O)[C@H](CO)NC(=O)[C@H](Cc1ccc(O)cc1)NC(=O)[C@H](CC(=O)O)NC(=O)[C@H](CO)NC(=O)[C@@H](NC(=O)[C@H](Cc1ccccc1)NC(=O)[C@@H](NC(=O)CNC(=O)[C@H](CCC(=O)O)NC(=O)CCNC(=O)NCCN1C(=O)CSC1=O)[C@@H](C)O)[C@@H](C)O)C(=O)N[C@@H](Cc1ccc(O)cc1)C(=O)N[C@@H](CC(C)C)C(=O)N[C@@H](CC(=O)O)C(=O)N[C@@H](CCCCN)C(=O)N[C@@H](CCC(N)=O)C(=O)N[C@@H](C)C(=O)N[C@@H](C)C(=O)NC(C)(C)C(=O)N[C@@H](CCC(=O)O)C(=O)N[C@@H](Cc1ccccc1)C(=O)N[C@H](C(=O)N[C@@H](CC(N)=O)C(=O)N[C@@H](Cc1c[nH]c2ccccc12)C(=O)N[C@@H](CC(C)C)C(=O)N[C@@H](CC(C)C)C(=O)N[C@@H](C)C(=O)NCC(=O)NCC(=O)N1CCC[C@H]1C(=O)N[C@@H](CO)C(=O)N[C@@H](CO)C(=O)NCC(=O)N[C@@H](C)C(=O)N1CCC[C@H]1C(=O)N1CCC[C@H]1C(=O)N1CCC[C@H]1C(=O)N[C@@H](CO)C(=O)N[C@@H](CCCCN)C(N)=O)C(C)C [Compound 148]
Emax (GLP-1R [1]; Table 3): 99% | EC50 (GLP-1R [1]; [3]): 0.1 to 1 nM | Emax (GLP-1R [1]; Table 3A): 99% | EC50 (GLP-1R [1]; [4]): 0.1 to 1 nM | Emax (GIP-R; Table 3): 64 to 67% | EC50 (GIP-R; [5]): 1 to 10 nM | Emax (GIP-R; Table 3A): 64 to 67% | EC50 (GIP-R; [6]): 1 to 10 nM | EC50 (GLP-1R [2]; [7]): > 1000 nM

CC[C@H](C)[C@H](NC(=O)[C@H](CO)NC(=O)[C@H](Cc1ccc(O)cc1)NC(=O)[C@H](CC(=O)O)NC(=O)[C@H](CO)NC(=O)[C@@H](NC(=O)[C@H](Cc1ccccc1)NC(=O)[C@@H](NC(=O)CNC(=O)[C@H](CCC(=O)O)NC(=O)C(C)(C)NC(=O)CCN1C(=O)CSC1=O)[C@@H](C)O)[C@@H](C)O)C(=O)N[C@@H](Cc1ccc(O)cc1)C(=O)N[C@@H](CC(C)C)C(=O)N[C@@H](CC(=O)O)C(=O)N[C@@H](CCCCN)C(=O)N[C@@H](CCC(N)=O)C(=O)N[C@@H](C)C(=O)N[C@@H](C)C(=O)NC(C)(C)C(=O)N[C@@H](CCC(=O)O)C(=O)N[C@@H](Cc1ccccc1)C(=O)N[C@H](C(=O)N[C@@H](CC(N)=O)C(=O)N[C@@H](Cc1c[nH]c2ccccc12)C(=O)N[C@@H](CC(C)C)C(=O)N[C@@H](CC(C)C)C(=O)N[C@@H](C)C(=O)NCC(=O)NCC(=O)N1CCC[C@H]1C(=O)N[C@@H](CO)C(=O)N[C@@H](CO)C(=O)NCC(=O)N[C@@H](C)C(=O)N1CCC[C@H]1C(=O)N1CCC[C@H]1C(=O)N1CCC[C@H]1C(=O)N[C@@H](CO)C(=O)N[C@@H](CCCCN)C(N)=O)C(C)C [Compound 130]
Emax (GLP-1R [1]; Table 3): 114% | EC50 (GLP-1R [1]; [3]): 0.1 to 1 nM | Emax (GLP-1R [1]; Table 3A): 114% | EC50 (GLP-1R [1]; [4]): 0.1 to 1 nM | Emax (GIP-R; Table 3): 64% | EC50 (GIP-R; [5]): 1 to 10 nM | Emax (GIP-R; Table 3A): 64% | EC50 (GIP-R; [6]): 1 to 10 nM | EC50 (GLP-1R [2]; [7]): > 1000 nM

CCCCCCCCCCCCCCCC(=O)N[C@@H](CCC(=O)NCCCC[C@H](NC(=O)[C@H](CO)NC(=O)[C@@H]1CCCN1C(=O)[C@@H]1CCCN1C(=O)[C@@H]1CCCN1C(=O)[C@H](C)NC(=O)CNC(=O)[C@H](CO)NC(=O)[C@H](CO)NC(=O)[C@@H]1CCCN1C(=O)CNC(=O)CNC(=O)[C@H](C)NC(=O)[C@H](CC(C)C)NC(=O)[C@H](CC(C)C)NC(=O)[C@H](Cc1c[nH]c2ccccc12)NC(=O)[C@H](CC(N)=O)NC(=O)[C@@H](NC(=O)[C@H](Cc1ccccc1)NC(=O)[C@H](CCC(=O)O)NC(=O)C(C)(C)NC(=O)[C@H](C)NC(=O)[C@H](C)NC(=O)[C@H](CCC(N)=O)NC(=O)[C@H](CCCCN)NC(=O)[C@H](CC(=O)O)NC(=O)[C@H](CC(C)C)NC(=O)[C@H](Cc1ccc(O)cc1)NC(=O)[C@@H](NC(=O)[C@H](CO)NC(=O)[C@H](Cc1ccc(O)cc1)NC(=O)[C@H](CC(=O)O)NC(=O)[C@H](CO)NC(=O)[C@@H](NC(=O)[C@H](Cc1ccccc1)NC(=O)[C@@H](NC(=O)CNC(=O)[C@H](CCC(=O)O)NC(=O)CSCC(=O)NCCN1CCNCC1=O)[C@@H](C)O)[C@@H](C)O)[C@@H](C)CC)C(C)C)C(N)=O)C(=O)O [Compound 33]
Emax (GLP-1R [1]; Table 3): 100% | EC50 (GLP-1R [1]; [3]): 0.1 to 1 nM | Emax (GLP-1R [1]; Table 3A): 100% | EC50 (GLP-1R [1]; [4]): 0.1 to 1 nM | Emax (GIP-R; Table 3): 43% | EC50 (GIP-R; [5]): 10 to 100 nM | Emax (GIP-R; Table 3A): 43% | EC50 (GIP-R; [6]): 10 to 100 nM | EC50 (GLP-1R [2]; [7]): > 1000 nM

CC[C@H](C)[C@H](NC(=O)[C@H](CO)NC(=O)[C@H](Cc1ccc(O)cc1)NC(=O)[C@H](CC(=O)O)NC(=O)[C@H](CO)NC(=O)[C@@H](NC(=O)[C@H](Cc1ccccc1)NC(=O)[C@@H](NC(=O)CNC(=O)[C@H](CCC(=O)O)NC(=O)CC(=O)NCCCN1C(=O)CSC1=O)[C@@H](C)O)[C@@H](C)O)C(=O)N[C@@H](Cc1ccc(O)cc1)C(=O)N[C@@H](CC(C)C)C(=O)N[C@@H](CC(=O)O)C(=O)N[C@@H](CCCCN)C(=O)N[C@@H](CCC(N)=O)C(=O)N[C@@H](C)C(=O)N[C@@H](C)C(=O)NC(C)(C)C(=O)N[C@@H](CCC(=O)O)C(=O)N[C@@H](Cc1ccccc1)C(=O)N[C@H](C(=O)N[C@@H](CC(N)=O)C(=O)N[C@@H](Cc1c[nH]c2ccccc12)C(=O)N[C@@H](CC(C)C)C(=O)N[C@@H](CC(C)C)C(=O)N[C@@H](C)C(=O)NCC(=O)NCC(=O)N1CCC[C@H]1C(=O)N[C@@H](CO)C(=O)N[C@@H](CO)C(=O)NCC(=O)N[C@@H](C)C(=O)N1CCC[C@H]1C(=O)N1CCC[C@H]1C(=O)N1CCC[C@H]1C(=O)N[C@@H](CO)C(=O)N[C@@H](CCCCN)C(N)=O)C(C)C [Compound 166]
EC50 (GLP-1R [1]; EC50 GLP-1R/nM, Table 3): < 0.1 nM | EC50 (GLP-1R [1]; EC50 GLP-1R/nM, Table 3A): < 0.1 nM | Emax (GLP-1R [1]; Table 3): 109% | Emax (GLP-1R [1]; Table 3A): 109% | Emax (GIP-R; Table 3): 77 to 84% | Emax (GIP-R; Table 3A): 77 to 84% | EC50 (GIP-R; read-out: EC50 GIP-R/nM, Table 3): 1 to 100 nM | EC50 (GIP-R; read-out: EC50 GIP-R/nM, Table 3A): 1 to 100 nM | EC50 (GLP-1R [2]): > 1000 nM

CC[C@H](C)[C@H](NC(=O)[C@H](CO)NC(=O)[C@H](Cc1ccc(O)cc1)NC(=O)[C@H](CC(=O)O)NC(=O)[C@H](CO)NC(=O)[C@@H](NC(=O)[C@H](Cc1ccccc1)NC(=O)[C@@H](NC(=O)CNC(=O)[C@H](CCC(=O)O)NC(=O)C(C)(C)C(=O)NC)[C@@H](C)O)[C@@H](C)O)C(=O)N[C@@H](Cc1ccc(O)cc1)C(=O)N[C@@H](CC(C)C)C(=O)N[C@@H](CC(=O)O)C(=O)N[C@@H](CCCCN)C(=O)N[C@@H](CCC(N)=O)C(=O)N[C@@H](C)C(=O)N[C@@H](C)C(=O)NC(C)(C)C(=O)N[C@@H](CCC(=O)O)C(=O)N[C@@H](Cc1ccccc1)C(=O)N[C@H](C(=O)N[C@@H](CC(N)=O)C(=O)N[C@@H](Cc1c[nH]c2ccccc12)C(=O)N[C@@H](CC(C)C)C(=O)N[C@@H](CC(C)C)C(=O)N[C@@H](C)C(=O)NCC(=O)NCC(=O)N1CCC[C@H]1C(=O)N[C@@H](CO)C(=O)N[C@@H](CO)C(=O)NCC(=O)N[C@@H](C)C(=O)N1CCC[C@H]1C(=O)N1CCC[C@H]1C(=O)N1CCC[C@H]1C(=O)N[C@@H](CO)C(=O)N[C@@H](CCCCN)C(N)=O)C(C)C [Compound 142]
Emax (GLP-1R [1]; Table 3): 101 to 105% | EC50 (GLP-1R [1]; [3]): < 0.1 nM | Emax (GLP-1R [1]; Table 3A): 101 to 105% | EC50 (GLP-1R [1]; [4]): < 0.1 nM | Emax (GIP-R; Table 3): 14.2 to 17% | EC50 (GIP-R; [5]): 10 to 100 nM | Emax (GIP-R; Table 3A): 14.2 to 17% | EC50 (GIP-R; [6]): 100 to 1000 nM | EC50 (GLP-1R [2]; [7]): 10 to 1000 nM
